Drawing on PubChem BioAssay AID1671277, this text covers IC50 for one compound.

This assay has as its target Tyrosine-protein kinase Fgr (Homo sapiens) (UniProt P09769). The assay is described as follows: inhibitors of human FGR tyrosine kinase activity – biochemical, Z'-LYTE, FRET readout, direct format, dose response (AID 1671277). The conditions noted are these: recombinant FGR.

As a reminder, the IC50 is the concentration at which inhibition is half-maximal.

Sequence of Tyrosine-protein kinase Fgr (Homo sapiens) (P09769 whole entry, looked up): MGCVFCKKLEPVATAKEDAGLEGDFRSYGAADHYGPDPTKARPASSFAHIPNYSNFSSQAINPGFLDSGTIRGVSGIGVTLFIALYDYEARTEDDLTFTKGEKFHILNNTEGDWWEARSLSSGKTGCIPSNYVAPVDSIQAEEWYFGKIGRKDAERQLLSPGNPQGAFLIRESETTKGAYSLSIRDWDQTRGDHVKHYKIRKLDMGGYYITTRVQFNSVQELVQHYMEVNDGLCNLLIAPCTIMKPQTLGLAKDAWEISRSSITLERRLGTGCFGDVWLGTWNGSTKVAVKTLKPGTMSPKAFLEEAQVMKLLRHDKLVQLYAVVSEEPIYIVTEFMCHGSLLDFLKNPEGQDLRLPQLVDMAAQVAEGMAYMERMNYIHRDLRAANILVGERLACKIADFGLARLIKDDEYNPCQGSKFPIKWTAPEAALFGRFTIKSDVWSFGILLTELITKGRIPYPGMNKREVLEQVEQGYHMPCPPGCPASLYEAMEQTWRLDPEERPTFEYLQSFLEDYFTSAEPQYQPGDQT

Regarding `COc1cc2ncnc(Nc3cccc(Cl)c3)c2cc1OC`, the IC50 is 919 nM.
